Assay results: patent EP0242855A2, “Crosslinking reaction inhibitor for collagen” (priority 1986, dated 1987)
“And” between values parts separate entries of the source, which are not always exact repeats. Identical values can stand only once. Like-named read-outs stand apart in the source and are kept apart here.

How the values were obtained:
collagen = biological target: T1, collagen (Gallus gallus, UniProt P02457+P02467); assay type: biochemical, spring chicken
T1 construct: collagen obtained by grinding and deliming the bone of a spring chicken; from tissue; host or cells: bone of a spring chicken, ground and delimed (demineralised)

[1] = LD50 safety data, rat subcutaneous treatment; details: in vivo, sc
From the text: The silicon compound used in the present invention involves no problem with respect to safety. Shown below are data as to the safety of the silicon compounds.

[2] = silicon compound 0.01 %, collagen 100 mg, glucose 0.2 M, pH 7.4, 37 C, 4 weeks
[3] = silicon compound 0.01 %, collagen 100 mg, glucose 0.2 M, pH 7.4, 37 C, 4 weeks, solubilized by cutting with CNBr
[4] = silicon compound 0.05 %, collagen 100 mg, glucose 0.2 M, pH 7.4, 37 C, 4 weeks
[5] = silicon compound 0.05 %, collagen 100 mg, glucose 0.2 M, pH 7.4, 37 C, 4 weeks, solubilized by cutting with CNBr
[6] = silicon compound 0.1 %, collagen 100 mg, glucose 0.2 M, pH 7.4, 37 C, 4 weeks

T1 sequence (P02467 78-1363): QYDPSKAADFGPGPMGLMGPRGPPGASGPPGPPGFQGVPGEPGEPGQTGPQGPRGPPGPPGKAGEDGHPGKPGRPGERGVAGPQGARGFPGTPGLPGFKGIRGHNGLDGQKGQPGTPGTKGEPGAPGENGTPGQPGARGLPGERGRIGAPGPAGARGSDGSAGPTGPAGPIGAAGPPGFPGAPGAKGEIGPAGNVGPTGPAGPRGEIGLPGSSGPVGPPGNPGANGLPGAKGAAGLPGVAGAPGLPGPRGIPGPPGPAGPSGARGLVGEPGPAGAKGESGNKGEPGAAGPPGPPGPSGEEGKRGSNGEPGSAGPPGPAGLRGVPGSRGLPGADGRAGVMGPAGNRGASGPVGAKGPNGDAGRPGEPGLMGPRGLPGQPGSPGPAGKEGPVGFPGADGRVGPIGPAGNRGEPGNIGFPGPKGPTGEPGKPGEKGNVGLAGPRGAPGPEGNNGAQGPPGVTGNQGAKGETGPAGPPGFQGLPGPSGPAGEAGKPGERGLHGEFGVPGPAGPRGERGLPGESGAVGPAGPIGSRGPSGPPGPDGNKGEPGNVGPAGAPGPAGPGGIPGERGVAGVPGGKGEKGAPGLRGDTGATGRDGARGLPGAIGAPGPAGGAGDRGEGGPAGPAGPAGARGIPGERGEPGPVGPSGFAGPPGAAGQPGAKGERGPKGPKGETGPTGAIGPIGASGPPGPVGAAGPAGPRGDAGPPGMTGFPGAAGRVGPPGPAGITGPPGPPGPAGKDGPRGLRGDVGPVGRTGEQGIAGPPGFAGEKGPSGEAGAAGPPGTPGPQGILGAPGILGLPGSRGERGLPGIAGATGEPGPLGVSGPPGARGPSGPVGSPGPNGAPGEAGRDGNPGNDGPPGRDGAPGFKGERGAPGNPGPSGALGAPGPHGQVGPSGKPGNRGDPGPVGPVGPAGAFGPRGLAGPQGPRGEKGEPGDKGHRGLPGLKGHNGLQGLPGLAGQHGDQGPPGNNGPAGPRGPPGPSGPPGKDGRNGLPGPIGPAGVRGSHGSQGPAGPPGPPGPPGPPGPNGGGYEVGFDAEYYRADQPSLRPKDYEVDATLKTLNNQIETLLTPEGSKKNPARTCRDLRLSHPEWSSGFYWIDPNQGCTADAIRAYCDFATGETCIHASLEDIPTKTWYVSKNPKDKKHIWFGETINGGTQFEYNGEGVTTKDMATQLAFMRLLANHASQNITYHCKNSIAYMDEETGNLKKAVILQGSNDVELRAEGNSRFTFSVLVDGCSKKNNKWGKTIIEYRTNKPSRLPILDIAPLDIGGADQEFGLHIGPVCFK
T1 sequence (P02457 152-1207): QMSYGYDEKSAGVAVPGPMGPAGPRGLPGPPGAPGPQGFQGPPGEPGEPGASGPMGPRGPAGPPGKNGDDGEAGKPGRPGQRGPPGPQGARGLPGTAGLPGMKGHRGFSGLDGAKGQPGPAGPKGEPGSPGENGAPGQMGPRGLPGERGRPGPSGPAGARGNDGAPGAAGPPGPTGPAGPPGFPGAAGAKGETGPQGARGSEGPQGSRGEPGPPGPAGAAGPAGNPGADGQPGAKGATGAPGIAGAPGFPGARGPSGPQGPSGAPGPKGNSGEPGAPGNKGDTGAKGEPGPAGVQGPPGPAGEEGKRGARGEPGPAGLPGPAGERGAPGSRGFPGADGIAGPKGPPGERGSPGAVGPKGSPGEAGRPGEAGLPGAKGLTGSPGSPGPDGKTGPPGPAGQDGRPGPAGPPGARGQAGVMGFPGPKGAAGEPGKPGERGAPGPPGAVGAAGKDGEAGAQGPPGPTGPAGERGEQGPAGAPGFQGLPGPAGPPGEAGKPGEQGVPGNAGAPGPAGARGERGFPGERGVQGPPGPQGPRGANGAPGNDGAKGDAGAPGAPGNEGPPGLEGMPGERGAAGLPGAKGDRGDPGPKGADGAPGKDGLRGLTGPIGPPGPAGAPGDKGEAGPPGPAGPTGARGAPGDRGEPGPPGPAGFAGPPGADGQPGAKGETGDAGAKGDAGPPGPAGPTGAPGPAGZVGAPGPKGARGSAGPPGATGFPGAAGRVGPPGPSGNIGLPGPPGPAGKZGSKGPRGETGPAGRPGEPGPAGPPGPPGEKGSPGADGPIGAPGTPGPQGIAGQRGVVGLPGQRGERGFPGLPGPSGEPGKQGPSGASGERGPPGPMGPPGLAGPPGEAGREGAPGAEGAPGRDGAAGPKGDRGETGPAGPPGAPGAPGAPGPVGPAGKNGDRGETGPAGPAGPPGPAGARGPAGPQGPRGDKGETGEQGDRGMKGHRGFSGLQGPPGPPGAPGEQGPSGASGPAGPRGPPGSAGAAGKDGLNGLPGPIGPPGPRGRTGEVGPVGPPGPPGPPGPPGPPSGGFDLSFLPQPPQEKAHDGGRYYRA

## O[Si](O)(O)C1CCCCC1 [Cyclohexyl silanetriol, cyclohexyl silanetriol]
collagen; [2]
  Portion A/ portion B: 0.42
collagen; [3]
  Soluble collagen (%): 68%
collagen; [4]
  Portion A/ portion B: 0.45
collagen; [5]
  Soluble collagen (%): 73%

## C[Si](O)(O)O[Si](C)(O)O [Dimer of methyl silnetriol]
collagen; [2]
  Portion A/ portion B: 0.35
collagen; [3]
  Soluble collagen (%): 80%
collagen; [4]
  Portion A/ portion B: 0.40
collagen; [5]
  Soluble collagen (%): 75%

## C[Si](C)(O)O [Dimethyl silanediol, dimethyl silanediol]
collagen; [2]
  Portion A/ portion B: 0.43
collagen; [6]
  Portion A/ portion B: 0.35

## CCCCCCCCCCCC[Si](O)(O)O [Dodecyl silanetriol, dodecyl silanetriol]
collagen; [2]
  Portion A/ portion B: 0.45
collagen; [3]
  Soluble collagen (%): 68%
collagen; [4]
  Portion A/ portion B: 0.44
collagen; [5]
  Soluble collagen (%): 72%

## C[Si](O)(O)O [Methyl silanetriol, methyl silanetriol]
[1]
  LD50: ≥ 1000 mg/kg
collagen; addition of 0.01 to 0.1%
  crosslinking and polymerization of collagen: inhibits the crosslinking and polymerization of collagen
collagen; pH 7.4
  Soluble collagen (%): 50% and 81% and 86% and 76% and 54%
collagen; silicon compound 0.003 %, collagen 100 mg, glucose 0.2 M, pH 7.4, 37 C, 4 weeks
  Portion A/ portion B: 0.55
collagen; [2]
  Portion A/ portion B: 0.40
collagen; silicon compound 0.03 %, collagen 100 mg, glucose 0.2 M, pH 7.4, 37 C, 4 weeks
  Portion A/ portion B: 0.35
collagen; [6]
  Portion A/ portion B: 0.40
collagen; silicon compound 0.3 %, collagen 100 mg, glucose 0.2 M, pH 7.4, 37 C, 4 weeks
  Portion A/ portion B: 0.54

## O[Si](O)(O)c1ccccc1 [Phenyl silanetriol]
collagen; [2]
  Portion A/ portion B: 0.40
collagen; [3]
  Soluble collagen (%): 70%
collagen; [4]
  Portion A/ portion B: 0.41
collagen; [5]
  Soluble collagen (%): 72%

## CC=C[Si](O)(O)O [Propenyl silanetriol, propenyl silanetriol]
collagen; [2]
  Portion A/ portion B: 0.45
collagen; [3]
  Soluble collagen (%): 71%
collagen; [6]
  Portion A/ portion B: 0.39
collagen; silicon compound 0.1 %, collagen 100 mg, glucose 0.2 M, pH 7.4, 37 C, 4 weeks, solubilized by cutting with CNBr
  Soluble collagen (%): 72%
